Data reported in patent US20250057913A1, “USE OF SOMATOSTATIN AGONIST IN THE TREATMENT OF SSTR3 EXPRESSING TUMORS” (ITALFARMACO SPA, priority 2021, published 2025).

Tests used:
SSTR3-tGFP = SSTR3-tGFP (Homo sapiens, UniProt P32745); assay: Internalization of SSTR3 in U2OS transfected cells; type: cell-based; design: expressed in transfected cells; host or cells: U2OS
Text: (§1) HEK293 cells transfected with human SSTRs, and U20S cells transfected with human GFP-tagged receptors (SSTR2-tGFP, SSTR3-tGFP, SSTR5-tGFP).

SSTR2 [1] = target: T1, SSTR2 (Homo sapiens, UniProt P30874); assay: SSTR2 internalization in transfected HEK293 cells; type: cell-based; design: expressed in transfected cells
T1 sequence (P30874 whole entry): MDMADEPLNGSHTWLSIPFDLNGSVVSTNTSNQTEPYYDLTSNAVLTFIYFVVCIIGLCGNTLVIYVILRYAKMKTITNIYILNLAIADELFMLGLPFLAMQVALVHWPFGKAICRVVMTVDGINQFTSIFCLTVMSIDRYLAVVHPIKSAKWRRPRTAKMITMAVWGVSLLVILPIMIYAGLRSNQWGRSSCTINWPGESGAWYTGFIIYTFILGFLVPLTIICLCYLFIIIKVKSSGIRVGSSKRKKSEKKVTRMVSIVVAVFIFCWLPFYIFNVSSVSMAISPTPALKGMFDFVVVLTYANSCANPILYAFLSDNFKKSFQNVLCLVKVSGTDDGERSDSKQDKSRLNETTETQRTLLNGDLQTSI
Text: as §1

opioid receptors = assay: single dose binding assays on opioid receptors; conditions: single dose 10^−5 M
SSTR5 [2] = target: T2, SSTR5 (Homo sapiens, UniProt P35346); assay: SSTR5 phosphorylation in HEK293 transfected cells (anti-pT333); type: cell-based; design: expressed in transfected cells; conditions: 10 min at 37° C.
T2 sequence (P35346 whole entry): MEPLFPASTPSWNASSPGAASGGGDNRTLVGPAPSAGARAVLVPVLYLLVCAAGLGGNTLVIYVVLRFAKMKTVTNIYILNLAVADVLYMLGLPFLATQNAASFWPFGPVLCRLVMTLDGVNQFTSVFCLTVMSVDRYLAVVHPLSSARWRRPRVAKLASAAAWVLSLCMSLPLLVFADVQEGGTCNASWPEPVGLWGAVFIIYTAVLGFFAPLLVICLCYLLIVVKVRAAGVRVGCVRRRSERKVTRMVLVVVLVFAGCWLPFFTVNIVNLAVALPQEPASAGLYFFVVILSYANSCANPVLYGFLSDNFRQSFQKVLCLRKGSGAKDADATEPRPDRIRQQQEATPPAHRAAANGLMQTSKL
Text: FIG. 9—Agonist-selective SSTR5 phosphorylation in HEK293 transfected cells. (A) Schematic representation of the human SSTR5 receptor indicating all potential phosphate acceptor site within the carboxyl-terminal tail. Epitope of the phosphosite-specific antibodies are marked (-P) . . . […] (C) Blots were subsequently stripped and reprobed with anti-HA antibody to confirm equal loading of the gels. Blots shown are representative of three independent experiments. The positions of molecular mass markers are indicated on the left (in kDa).
(§2) Finally, the SSTR5 pT333 phosphosite was only partially affected by all tested compounds, with Pasireotide showing the most pronounced effect (FIG. 9B, C).

SSTR3 [3] = target: T3, SSTR3 (Homo sapiens, UniProt P32745); assay: SSTR binding affinity (Table 1)
T3 sequence (P32745 whole entry): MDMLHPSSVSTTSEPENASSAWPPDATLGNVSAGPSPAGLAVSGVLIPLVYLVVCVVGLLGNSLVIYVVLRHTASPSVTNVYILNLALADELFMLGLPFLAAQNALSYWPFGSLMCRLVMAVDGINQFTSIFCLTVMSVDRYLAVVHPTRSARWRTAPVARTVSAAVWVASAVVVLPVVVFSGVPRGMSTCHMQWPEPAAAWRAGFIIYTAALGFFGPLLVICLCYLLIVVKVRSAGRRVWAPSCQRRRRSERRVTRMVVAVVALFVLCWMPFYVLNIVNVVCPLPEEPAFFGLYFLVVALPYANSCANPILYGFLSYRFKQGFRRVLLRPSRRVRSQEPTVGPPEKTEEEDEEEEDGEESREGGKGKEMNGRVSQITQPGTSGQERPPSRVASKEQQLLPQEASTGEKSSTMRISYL
Text: (§3) IC50 values are from one representative experiment. Confidence interval from 3 independent experiments (Table 1).

SSTR5 [4] = target: T2, SSTR5; assay: SSTR binding affinity (Table 1)
Text: as §3

SSTR1 = SSTR1 (Homo sapiens, UniProt P30872); assay: SSTR binding affinity (Table 1)
Sequence of SSTR1 (P30872 whole entry): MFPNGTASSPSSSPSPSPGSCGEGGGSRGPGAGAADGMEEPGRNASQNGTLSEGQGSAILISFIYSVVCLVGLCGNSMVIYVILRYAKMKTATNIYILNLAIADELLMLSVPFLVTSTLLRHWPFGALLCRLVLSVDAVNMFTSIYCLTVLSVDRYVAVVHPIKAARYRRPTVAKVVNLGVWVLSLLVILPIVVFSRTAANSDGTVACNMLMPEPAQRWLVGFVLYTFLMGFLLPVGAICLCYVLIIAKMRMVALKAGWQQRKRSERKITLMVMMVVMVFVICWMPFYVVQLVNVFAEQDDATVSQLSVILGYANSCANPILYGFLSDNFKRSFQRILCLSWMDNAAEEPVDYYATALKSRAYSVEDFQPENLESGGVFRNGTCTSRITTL
Text: as §3

SSTR2 [5] = target: T1, SSTR2; assay: SSTR binding affinity (Table 1); design: expressed in transfected cells; host or cells: HEK293 co-expressing GIRK2-GFP
Text: as §3

[6] = test system: NFPAs in MENX (homozygous mutant) rats; assay: Efficacy against endogenous NFPAs in MENX rat model; type: in vivo; conditions: for number of Ki67-positive cells per 100.000 μm^2: end of treatment
Method: MRI was performed every 14 days and the tumor volume was normalized against the volume at day 0. Male and female rat tumors are shown separately. Data presented are the mean±SEM. #, not significant; *, p-value <0.05; **, p-value <0.001.
(A, B) Number of Ki67-positive cells per 100.000 μm2 in tumors of rats belonging to the 2 groups (ITF2984-treated and control) and both sexes. Shown is the mean±SEM. *, p-value <0.05; **, p-value <0.001. […]
At the end of the treatment, pituitary tissues were collected for ex vivo analyses. […] The difference in the number of Ki67-positive cells between placebo-and ITF2984-treated female rats is significant (p=0.031). […]

IGF1 levels [7] = assay: IGF1 levels in dogs; type: in vivo, dog
SSTR2-tGFP = SSTR2-tGFP (Homo sapiens, UniProt P30874); assay: Internalization of SSTR2 in U2OS transfected cells; type: cell-based; design: expressed in transfected cells; host or cells: U2OS
Sequence of SSTR2-tGFP (P30874 whole entry): as the sequence (P30874 whole entry) above
Text: as §1

SSTR3 [8] = target: T3, SSTR3; assay: SSTR3 phosphorylation in HEK293 transfected cells (phosphosite-specific antibodies); type: cell-based; design: expressed in transfected cells; conditions: 10^−12 to 10^−5 M, 10 min at 37° C.
Method: The levels of phosphorylated SST3 receptor were then determined using the phosphosite-specific anti-pS337/pT341 or anti-pT348.
as §2

IGF1 levels [9] = assay: IGF1 levels in rats; type: in vivo, rat
[10] = test system: primary cultures of rat anterior pituitary cells; assay: Inhibition of GHRH-stimulated GH release in vitro; type: cell-based; conditions: rat anterior pituitary primary cell cultures
Text: FIG. 4. Inhibition of GHRH-stimulated GH release in vitro using primary cultures of rat anterior pituitary cells.
Results are expressed as mean values±SD of 3 experiments.

NT-3 cell line spheroids = assay: Cytotoxic activity on NT-3 cell line spheroids; type: cell-based, human
Method: NT-3 well-differentiated pancreatic neuroendocrine (PanNET) cell line (32) is an in-vitro model for pancreatic tumours.
Said cells were cultured in RPMI 1640 Medium GlutaMAX™ with 10% FBS, 1% Penicillin/Streptomycin, 20ng/ml EGF (AF-100-15, Peprotech), 10 ng/ml FGF (100-18B, Peprotech).
3D spheroids were generated by seeding 2000 cells/well in a 96-well ULA plate (Corning). Four replicates for each condition were seeded.
The spheroid formation required 4 days before starting the treatment.
The treatment was repeated every 3 days by replacing 50% of the medium (to avoid spheroid removal) with new medium containing 2× desired drug concentration.
Spheroid morphology was monitored every day during the treatment and pictures were taken on day 0, 4, 7, 11, 14, 18. Day 0 corresponds to the first day of treatment. Pictures were taken from the same well every time point.

SSTR3 [11] = target: T3, SSTR3; assay: SSTR3 internalization in transfected HEK293 cells (confocal microscopy); type: cell-based; design: expressed in transfected cells; conditions: HEK293, 1 μM or 10 μM, 30 min
Text: Cells were then fixed, stained with the anti-HA antibody and examined by confocal microscopy. Shown are representative images from one of at least three independent experiments performed in duplicate.
(§4) HEK293 cells transfected with human SSTRs, and U20S cells transfected with human GFP-tagged receptors (SSTR2-tGFP, SSTR3-tGFP, SSTR5-tGFP). SST14 and SST28 were included as reference compounds in the first and second experiments, respectively.

SSTR5 [12] = target: T2, SSTR5; assay: SSTR5 internalization in transfected HEK293 cells; type: cell-based; design: expressed in transfected cells; host or cells: HEK293 co-expressing GIRK2-GFP
Text: as §4

Sequence of SSTR3-tGFP (P32745 whole entry): as the sequence (P32745 whole entry) above

COc1cc2cccc(OC)c2cc1C[C@H]1NC(=O)[C@H](Cc2ccc(O)cc2)NC(=O)[C@@H]2C[C@@H](OC(=O)NCCN)CN2C(=O)[C@H](Cc2ccccc2)NC(=O)[C@H](Cc2ccc(OCc3ccccc3)cc2)NC(=O)[C@H](CCCCN)NC1=O [ITF2984, (3S,6R,9S,12S,15S,19R,20aS)-9-(4-aminobutyl)-15-benzyl-12-(4-(benzyloxy)benzyl)-6-((3,8-dimethoxynaphthalen-2-yl)methyl)-3-(4-hydroxybenzyl)-1,4,7,10,13,16-hexaoxoicosahydropyrrolo[1,2-a][1,4,7,10,13,16]hexaazacyclooctadecin-19-yl (2-aminoethyl)carbamate]
Mean of internalized fluorescence, SSTR3 (SSTR3-tGFP; 1 μM): 61.1 AU
rank as SSTR3-tGFP internalization inducer (SSTR3-tGFP; 1 μM): most potent inducer of receptor internalization
Mean of internalized fluorescence, SSTR3 (SSTR3-tGFP; 10 μM): 62.5 AU
internalization of SSTR2 (SSTR2 [1]): only a partial internalization
replacement of agonists (opioid receptors): fully replace agonists
phosphorylation of SSTR5 (pT333) (SSTR5 [2]): partial phosphorylation
IC50 (SSTR3 [3]): nanomolar range
affinity compared to octreotide (SSTR3 [3]; compared to octreotide): higher affinity
IC50 (SSTR5 [4]): nanomolar range
affinity compared to octreotide (SSTR5 [4]; compared to octreotide): higher affinity
affinity compared to octreotide (SSTR1): higher affinity
IC50 (SSTR2 [5]): nanomolar range
affinity compared to octreotide (SSTR2 [5]; compared to octreotide): lower affinity
signs of discomfort ([6]; end of the treatment): no signs of discomfort
tumor volume (MRI) ([6]; female rats, 56 days, 12.5 mg/kg every 14 days): only a slight increase in tumor volume
number of Ki67-positive cells per 100.000 μm^2 ([6]; female rats): 134
change in Ki67-positive cells versus placebo ([6]; male rats): −33.5%
number of Ki67-positive cells per 100.000 μm^2 ([6]; male rats): 250
IGF1 levels (IGF1 levels [7]): decreased IGF1 levels
Mean of internalized fluorescence, SSTR2 (SSTR2-tGFP; 1 μM): 37.3 AU
Mean of internalized fluorescence, SSTR2 (SSTR2-tGFP; 10 μM): 35.9 AU
phosphorylation of SSTR3 (pS337/pT341, pT348) (SSTR3 [8]): full phosphorylation
IGF1 levels (IGF1 levels [9]): decreased IGF1 levels
inhibition of GH release [10]: potently inhibited GH release
spheroid morphology at the highest concentration (NT-3 cell line spheroids; 2.56 μM, 18 days): completed destroyed
concentration reducing the spheroid volume (NT-3 cell line spheroids; starting from day 7): ≥ 640 nM
internalization of SSTR3 (SSTR3 [11]): strong internalization
internalization of SSTR5 (SSTR5 [12]): only a partial internalization
